Laboratory results reported in PMC12266748, “A Xanthine Derivative With Novel Heat Shock Protein 90‐Alpha Inhibitory and Senolytic Properties” (Aging Cell, 2025).
Where two headings read alike, the source gives them in different places.

Tests used:
WI38 cells = test: Dose-response curves on proliferating and replicative senescent WI38 (Trypan blue cell count); format: cell-based; details: for EC50: Homo sapiens, WI-38
Source text: (§1) IMR90 and WI38 lung fibroblasts were purchased from ECACC‐Merck. Human bone marrow (BM)‐derived mesenchymal stromal cells (MSCs) were purchased from Lonza. Human umbilical vein endothelial cells (HUVECs) are primary cells obtained from a pool of donors purchased from Clonetics (Lonza). Murine ear fibroblasts (MearFs) were obtained from C57BL/6J mice maintained in the INRCA “Specific Pathogen Free” (SPF) animal facility. MCF7 breast cancer cells were purchased from ATCC. For dose–response curves, IMR90 and WI38 were induced to senescence through replicative passages; MSCs, HUVECs, and MearFs senescence was induced with Doxorubicin; MCF7 senescence was induced with 4‐Hydroxytamoxifen (Lee et al. [2014]). The EC50 was calculated using GraphPad Prism 10 software. All treatment specifications are reported in the extended section.
Cell culture and treatment. IMR90 cells (Homo sapiens, fetal lung, fibroblast) and WI38 cells (Homo sapiens, fetal lung, fibroblast) were purchased from ECACC-Merck (Merck, Darmstadt, Germany) and cultured in MEM medium (Euroclone, Milano, Italy) supplemented with 1% L-Glutamine (Euroclone, Milano, Italy), 1% Penicillin-Streptomycin (Euroclone, Milano, Italy), and 10% Fetal Bovine Serum (FBS, Euroclone, Milano, Italy), at 37°C, 5% CO2. IMR90 cells with a population doubling (PD) from PD15 to PD23 were used; cells were considered incrementally senescent from passage PD19 to passage PD23. WI38 cells were used from PD26 to PD53. Cells were considered incrementally senescent from passage PD49 to passage PD53. For the compounds in vitro screening, IMR90 cells with passages from PD15 to PD23 were tested at increasing concentrations of 0.5 μM, 1 μM, 10 μM, and 25 μM over 24 and 48 h to evaluate the compounds' efficacy and cytotoxicity compared to the Vehicle (DMSO ≤ 0.1%). Cells were counted manually, in triplicate, using Trypan blue reagent (Euroclone) and disposable Bürker chambers. […] K5 dose-response proliferation curves were performed with compound K5 (Molport, SIA, Riga, Latvia) in concentrations 0.1, 0.5, 1, 5, 10, 50, 100, and 200 μM for 48 h. Cells were counted using a Trypan blue reagent and EVAplus cell counter. The EC50s were calculated by analyzing the data using GraphPad Prism 10 software.
MCF7 cell line (ATCC; HTB-22, Homo sapiens, breast cancer) was purchased from ATCC; cells were grown in MEM medium (Corning, New York, USA, #15-010-CVR) supplemented with 10% FBS (Gibco, Invitrogen, Carlsbad, CA, USA, #10270106), 1% glutamine (Corning #25005-CI), 1% penicillin and streptomycin (Corning #30002-CI). Cells were incubated at 37 °C with 5% CO2. Senescent status induction: MCF7 were plated 24 h before the treatment with 4-Hydroxytamoxifen (TAM) 10 μM to induce the senescence described by (Lee et al. 2014). Control cultures were treated with equal volumes of 75% ethanol as the vehicle. The treatment with TAM lasts 96 h, after which the cells have been washed and treated with the senolytic drugs K5 10 µM for another 96 h. The treatment with the senolytic compounds has been renewed at 48 h. Cell mortality and vitality curves after treatment with K5 (10 μM, orange) or Vehicle (DMSO, grey) were monitored using the Incucyte live-cell Analysis system (Sartorius, Goettingen, Germany). The estimated Senolytic index (SI) was calculated as the ratio between the EC50 in proliferating cells and the EC50 in senescent cells, extrapolated using GraphPad Prism 10 software.

[1] = system: Mouse ear fibroblasts (MearF); test: MTT viability of Doxorubicin-induced senescent and non-senescent murine ear fibroblasts; format: cell-based, C57BL/6J mice; details: for EC50: Mus musculus, Fibroblast
Source text: as §1
Cell viability was determined using an MTT assay. Absorbance was measured using a NB‐12‐0035 Microplate Reader (NeoBiotech Co.). Data are expressed as a percentage of viability compared with untreated cells.
Murine ear fibroblasts (MearFs) were obtained from C57BL/6J mice maintained in the INRCA "Specific Pathogen Free" (SPF) animal facility. The ear biopsies (2 mm radius) were obtained with a dedicated puncher, and cells recovered as previously described (Malavolta et al. 2022). Cells were seeded at a density of 5000/cm^2 in T75 flasks (Corning Costar, Sigma Aldrich, St. Louis, MO, USA) and maintained at 37°C in a 95% humidified incubator with 5% CO2. Culture was carried out in RPMI (Euroclone, Milano, Italy) supplemented with 10% Fetal Calf Serum (FCS, Sigma-Aldrich, St. Louis, MO, USA), 2mM L-Glutamine, 100 U/mL penicillin and […] streptomycin (all from Sigma- Aldrich, St. Louis, MO, USA). At approximately 80% confluence, the cells were detached from the plate by incubation with trypsin-EDTA (Sigma-Aldrich, St. Louis, MO, USA) for 5 min at 37 °C and re-plated. For Doxorubicin-induced senescence, cells were seeded in a 96-well plate at a 5000 cells/cm2 density. MSC cells were treated with 100 nM Doxorubicin (DOX) for 24 h and then maintained with medium for 4 days; HUVECs were treated with 50 nM DOX for 24 h and then maintained with medium for 4 days. MearFs were induced to senescence by continuous exposure (5 days) to 75 nM DOX. […]
Cell viability assay. Cell viability has been determined with MTT (3-(4,5-dimethylthiazol-2-yl)-2, 5-diphenyltetrazolium bromide) assay. […] Insoluble formazan salts produced were solubilized with DMSO incubation, and then absorbance was measured at 540 nm using a microplate reader (NB-12-0035 Microplate Reader, NeoBiotech Co., Seoul, Republic of Korea). Data are expressed as a percentage of viability compared with untreated cells (the control group has been considered 100% of viability).

Drosophila melanogaster = Drosophila melanogaster gene expression analysis (qRT-PCR); format: in vivo; details: K5 10 μg/mL
Protocol: Total RNA from Drosophila melanogaster was isolated using a TripleXtractor reagent kit (Grisp Research Solution, Porto, Portugal). Gene expression of Dacapo (Dap), Unpaired 2 (Upd2), Unpaired 3 (Upd3), and Glyceraldehyde‐3‐phosphate dehydrogenase 1 (Gapdh1) was analyzed by qRT‐PCR. Details are reported in the extended methods.

For `Cc1ccccc1-n1c(=O)n(Cc2ccccc2)c(=O)c2[nH]cnc21` [Compound K5, 1-benzyl-3-(2-methylphenyl)-7H-purine-2,6-dione], the EC50 (WI38 cells; WI38, Replicative/passages, read-out: EC50 senescent cells) was 0.65 µM, the EC50 (WI38 cells; WI38, read-out: EC50 proliferating cells) was greater than 500 µM and the “Senolytic evidence (no, partly/yes)” value (WI38 cells; WI38, Replicative/passages) was “Yes”. For the same compound, the “Senolytic index (estimated)” value (WI38 cells; WI38, SI = EC50 in proliferating cells/EC50 senescent cells) was greater than 770, the “toxicity in proliferating cells” value (WI38 cells; proliferating WI38 (PD29), 100 nM to 200 μM, 48 h) was “no evident toxicity” and the “Senolytic evidence (no, partly/yes)” value ([1]; DNA damage (Doxorubicin)) was “No”. The “difference in vitality, DOXO-induced senescent vs non-senescent proliferating cells” value ([1]; MTT) was “no discernible difference”, the EC50 ([1]; DNA damage (Doxorubicin), MTT, read-out: EC50 senescent cells) was greater than 500 µM and the EC50 ([1]; MTT, read-out: EC50 proliferating cells) was greater than 500 µM. The “Dap relative expression vs controls” value (Drosophila melanogaster) was “no significant difference”, the “Upd2 relative expression vs controls” value (Drosophila melanogaster; p < 0.05) was “significantly reduced” and the “Upd3 relative expression vs controls” value (Drosophila melanogaster; p < 0.05) was “significantly reduced”.
